Values quoted from earlier work in patent US9970152B2, “Method for functionalizing a solid material surface with self assembling or self aggregating cyclodextrins and products thereof” (Aalborg Universitet, priority 2010, dated 2018).

Settings: in water

In the case of `OC[C@H]1O[C@@H]2O[C@H]3[C@H](O)[C@@H](O)[C@@H](O[C@H]4[C@H](O)[C@@H](O)[C@@H](O[C@H]5[C@H](O)[C@@H](O)[C@@H](O[C@H]6[C@H](O)[C@@H](O)[C@@H](O[C@H]7[C@H](O)[C@@H](O)[C@@H](O[C@H]1[C@H](O)[C@H]2O)O[C@@H]7CO)O[C@@H]6CO)O[C@@H]5CO)O[C@@H]4CO)O[C@@H]3CO` [α CD], the Solubility is listed as 129.5 g/kg H2O.
